This is an account of results in ChEMBL document CHEMBL1201862, “PubChem BioAssay data set” (2004).

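Values below derive from 48-hour exposures of cells grown in 96-well plates, with endpoints linearly interpolated between the two concentrations bracketing the appropriate inhibition level. GI50 = concentration required for 50% inhibition of growth.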 The source made the active and inactive calls. Rule as the data show it: active = GI50 up to about 1.1 µM and inactive = higher.

Some test systems named below: LOX IMVI; SF-295; EKVX; NCI/ADR-RES; ACHN; TK-10; CAKI-1; KM12; SK-OV-3; SF-268; SK-MEL-5; MOLT-4; SN12C; SW-620; A549; RXF 393; SK-MEL-2; OVCAR-4; IGROV-1; NCI-H522.
Holding throughout (test): NCI tumour cell line growth inhibition, 48 h

`C=Cc1cnc([N+](=O)[O-])n1C`: the GI50 with LOX IMVI is 87.5 µM (inactive); in the experiment on SF-295, 35.2 µM (inactive); with EKVX it was > 100 µM (inactive); in the experiment with NCI/ADR-RES, > 100 µM (inactive); in the experiment on ACHN, 52 µM (inactive); with TK-10, 36.1 µM (inactive). The GI50 in the experiment with CAKI-1 was 42.5 µM (inactive); in the experiment on KM12 it was 36.2 µM (inactive); in the experiment on SK-OV-3 it was 71 µM (inactive); in the experiment with SF-268 it was 46.7 µM (inactive); in the experiment on SK-MEL-5, 83.2 µM (inactive); in the experiment with MOLT-4, 53.8 µM (inactive). The GI50 in the experiment with SN12C was > 100 µM (inactive); in the experiment on SW-620, 62.1 µM (inactive); in the experiment with A549, 56 µM (inactive).

`CSc1nc2nc(C)c(C)nc2c(=O)[nH]1`: the GI50 in the experiment with LOX IMVI, with RXF 393, in the experiment on SF-295, in the experiment with EKVX, in the experiment on SK-MEL-2 and in the experiment on ACHN was > 100 µM (inactive) each time. Besides, the GI50 in the experiment on OVCAR-4, in the experiment on TK-10, in the experiment on IGROV-1, in the experiment on CAKI-1, in the experiment on KM12 and in the experiment with SK-OV-3 was > 100 µM (inactive) in each case. Also, the GI50 is > 100 µM (inactive) with SF-268; > 100 µM (inactive) in the experiment on SK-MEL-5; > 100 µM (inactive) with NCI-H522; 51.2 µM (inactive) with MOLT-4; > 100 µM (inactive) in the experiment with SN12C; > 100 µM (inactive) with SW-620. In addition, the GI50 in the experiment on A549 was > 100 µM (inactive).

Take `S=C(Cc1ccc2c(c1)Sc1ccccc1O2)N1CCOCC1`: the GI50 in the experiment on LOX IMVI was 45.4 µM (inactive); in the experiment on RXF 393 it was 69.8 µM (inactive); in the experiment on SF-295, 22.6 µM (inactive); in the experiment with EKVX, 30.3 µM (inactive); in the experiment on NCI/ADR-RES, 24.8 µM (inactive); in the experiment with SK-MEL-2, 66.7 µM (inactive). Further, the GI50 is 38.7 µM (inactive) in the experiment on ACHN; > 100 µM (inactive) with OVCAR-4; > 100 µM (inactive) with TK-10; 33.7 µM (inactive) with IGROV-1; 38.9 µM (inactive) with CAKI-1; 29 µM (inactive) in the experiment on KM12. Moreover, the GI50 in the experiment with SK-OV-3 was 49.9 µM (inactive); in the experiment with SF-268, 32.6 µM (inactive); in the experiment on MOLT-4, 52.1 µM (inactive); in the experiment with SN12C it was > 100 µM (inactive); in the experiment with SW-620, 43 µM (inactive); in the experiment with A549, 35.7 µM (inactive).

For `COc1c2c(nc3ccccc13)-c1cc3c(c(=O)n1C2)COC(=O)C3(O)CC(=O)N1CCOCC1` (stereo not given), the GI50 was 1.36 µM (inactive) in the experiment on LOX IMVI; 6.01 µM (inactive) with RXF 393; 3.59 µM (inactive) in the experiment with SF-295; 43.2 µM (inactive) with EKVX; 26.8 µM (inactive) in the experiment with SK-MEL-2; 3.13 µM (inactive) with ACHN. The GI50 in the experiment with OVCAR-4 is 46.1 µM (inactive); in the experiment with TK-10 it was 75 µM (inactive); in the experiment on IGROV-1, 44.1 µM (inactive); in the experiment on CAKI-1, 3.79 µM (inactive); in the experiment with KM12, 17.1 µM (inactive); in the experiment on SK-OV-3, 9.48 µM (inactive). Further, the GI50 in the experiment on SF-268 was 0.532 µM (active); with SK-MEL-5 it was 4.09 µM (inactive); with NCI-H522, 1.9 µM (inactive); in the experiment on MOLT-4 it was 0.29 µM (active); in the experiment on SN12C, 1.59 µM (inactive); in the experiment on SW-620, 5.4 µM (inactive). In addition, in the experiment with A549, the GI50 is 10.5 µM (inactive).

For `COc1ccc(OC)c(/C=C/NC=O)c1`, the GI50 in the experiment with LOX IMVI, in the experiment with RXF 393, in the experiment on SF-295, in the experiment on EKVX, with SK-MEL-2 and in the experiment with ACHN was > 100 µM (inactive) throughout. Further, the GI50 in the experiment with OVCAR-4, in the experiment with TK-10, in the experiment with IGROV-1, in the experiment with CAKI-1, with KM12 and in the experiment with SK-OV-3 was > 100 µM (inactive) each time. For the same molecule, the GI50 with SF-268 is > 100 µM (inactive); in the experiment with SK-MEL-5 it was > 100 µM (inactive); in the experiment with NCI-H522 it was > 100 µM (inactive); with MOLT-4 it was > 100 µM (inactive); in the experiment on SN12C, > 100 µM (inactive); in the experiment with SW-620, > 54.5 µM (inactive). For the same molecule, the GI50 with A549 is > 100 µM (inactive).

As for `CC(C)(C)c1ccc(C(O)c2ccc(C(C)(C)C)cc2)cc1`, the GI50 in the experiment with LOX IMVI was 14.7 µM (inactive); in the experiment with RXF 393, 17.1 µM (inactive); in the experiment with SF-295, 14 µM (inactive); in the experiment with EKVX, 17.7 µM (inactive); with SK-MEL-2, 15.2 µM (inactive); in the experiment on ACHN, 16.6 µM (inactive). The GI50 was 15.2 µM (inactive) with OVCAR-4; 21.1 µM (inactive) in the experiment on TK-10; 16.1 µM (inactive) in the experiment with IGROV-1; 15.1 µM (inactive) with CAKI-1; 15.6 µM (inactive) with KM12; 14.7 µM (inactive) in the experiment with SK-OV-3. Besides, the GI50 is 20 µM (inactive) with SF-268; 16.6 µM (inactive) in the experiment with SK-MEL-5; 10.2 µM (inactive) in the experiment with NCI-H522; 17.6 µM (inactive) in the experiment with MOLT-4; 13.1 µM (inactive) with SN12C; 14.6 µM (inactive) in the experiment with SW-620. The GI50 in the experiment on A549 was 14.2 µM (inactive).

Turning to `CC(C)=CCN1c2ccc(Cl)cc2NC(=O)CC1C` (stereo not given), the GI50 in the experiment with LOX IMVI is 17.8 µM (inactive); in the experiment with RXF 393 it was 24.9 µM (inactive); with SF-295, 35.1 µM (inactive); in the experiment with EKVX, 25.8 µM (inactive); with SK-MEL-2, 20.6 µM (inactive); in the experiment with ACHN, 19.1 µM (inactive). Also, the GI50 in the experiment on OVCAR-4 was 22 µM (inactive); in the experiment on TK-10, 35.2 µM (inactive); in the experiment with IGROV-1, 21.8 µM (inactive); in the experiment on CAKI-1 it was 15.8 µM (inactive); in the experiment with KM12 it was 28.3 µM (inactive); in the experiment with SK-OV-3, 34.7 µM (inactive). Further, the GI50 with SF-268 was 34.7 µM (inactive); in the experiment with SK-MEL-5, 18 µM (inactive); in the experiment on NCI-H522, 12 µM (inactive); in the experiment on MOLT-4, 48.4 µM (inactive); in the experiment on SN12C, 19.6 µM (inactive); with SW-620, 34.4 µM (inactive). Also, the GI50 in the experiment with A549 is 27.2 µM (inactive).

Turning to `N#CC1(c2nc3ccccc3o2)C(=O)C(=O)N(C2C3CC4CC(C3)CC2C4)C(=O)C1=O` (stereo not given), the GI50 in the experiment on LOX IMVI, in the experiment with RXF 393, with SF-295, in the experiment with EKVX, in the experiment on SK-MEL-2 and with ACHN was > 100 µM (inactive) in each case. In addition, the GI50 in the experiment on OVCAR-4, in the experiment with TK-10, in the experiment with IGROV-1, with CAKI-1, with KM12 and in the experiment with SK-OV-3 was > 100 µM (inactive) throughout. Also, the GI50 with SF-268, with SK-MEL-5, with NCI-H522, in the experiment on MOLT-4, in the experiment with SN12C and in the experiment with SW-620 was > 100 µM (inactive) throughout. Also, in the experiment on A549, the GI50 is > 100 µM (inactive).

As to `COC(=O)c1cc2c(s1)C(=O)c1ccccc1-2`, the GI50 in the experiment with LOX IMVI, in the experiment on RXF 393, in the experiment with SF-295, in the experiment with EKVX, in the experiment on SK-MEL-2 and in the experiment with ACHN was > 100 µM (inactive) in each case. Further, the GI50 in the experiment on OVCAR-4, in the experiment on TK-10, with IGROV-1, with CAKI-1, in the experiment on KM12 and in the experiment with SK-OV-3 was > 100 µM (inactive) each time. Besides, the GI50 with SF-268, in the experiment on SK-MEL-5, in the experiment on NCI-H522, in the experiment on MOLT-4, in the experiment with SN12C and with SW-620 was > 100 µM (inactive) in each case. Moreover, the GI50 in the experiment on A549 is > 100 µM (inactive).

In the case of `COc1cc(CO)c(CC(=O)NCCCc2ccccc2)cc1OC`, the GI50 in the experiment with LOX IMVI is > 100 µM (inactive); in the experiment with EKVX, > 100 µM (inactive); with NCI/ADR-RES it was 99.1 µM (inactive); in the experiment with SK-MEL-2 it was > 100 µM (inactive); in the experiment on ACHN, > 100 µM (inactive); in the experiment with OVCAR-4, > 100 µM (inactive). In addition, the GI50 is > 100 µM (inactive) in the experiment with TK-10; > 100 µM (inactive) with IGROV-1; > 100 µM (inactive) in the experiment with CAKI-1; 54.6 µM (inactive) in the experiment on KM12; 67.9 µM (inactive) in the experiment on SK-MEL-5; > 100 µM (inactive) in the experiment on MOLT-4. Further, the GI50 in the experiment with SN12C, in the experiment on SW-620 and with A549 was > 100 µM (inactive) throughout.

Take `COC(=O)c1ccc(NC(=O)c2cc(OC)c(OC)c(OC)c2)cc1`: the GI50 was 9.31 µM (inactive) in the experiment on LOX IMVI; 39.4 µM (inactive) with RXF 393; 0.8 µM (active) with SF-295; 38.4 µM (inactive) in the experiment with EKVX; 0.798 µM (active) in the experiment with SK-MEL-2; 2.71 µM (inactive) in the experiment on ACHN. The GI50 was 18.9 µM (inactive) in the experiment on OVCAR-4; 2.34 µM (inactive) with TK-10; 3.17 µM (inactive) in the experiment on IGROV-1; 2.16 µM (inactive) with CAKI-1; 1.02 µM (active) with KM12; 11.3 µM (inactive) in the experiment with SK-OV-3. Besides, the GI50 is 8.05 µM (inactive) in the experiment with SF-268; 0.195 µM (active) with SK-MEL-5; 0.836 µM (active) with NCI-H522; 3.93 µM (inactive) in the experiment with MOLT-4; 1.85 µM (inactive) in the experiment on SN12C; 0.955 µM (active) with SW-620. For the same molecule, the GI50 in the experiment with A549 is 3.38 µM (inactive).
